Measurements published in BigSolDB 2.1.

CC(O)(P(=O)(O)O)P(=O)(O)O.O
solubility (mole fraction)
Settings	293.15 K	298.15 K	303.15 K	308.15 K	313.15 K	318.15 K	323.15 K	328.15 K
in acetic acid	0.00181	0.0019	0.00196	0.002	0.002	0.00214	0.00225	0.00224
in water	0.174	0.182	0.19	0.198	0.207	0.215	0.225	0.235
